Experimental data: US20250059174A1, “Pharmaceutical Compounds and Compositions as C-Kit Kinase Inhibitors” (Enanta Pharmaceuticals, Inc., priority 2023, published 2025)

Tests used:
M-07e cells = assay: M-07e cellular assay (SCF-mediated cell proliferation); format: cell-based; conditions: Homo sapiens, 72 hours, CellTiter Glo
Method in brief: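 Readout came from CellTiter Glo after 72 h of compound treatment in SCF (EC90)-stimulated, pre-starved M-07e cells at 37 °C.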

[1] = target: Recombinant human c-KIT kinase (Homo sapiens (Human), UniProt P10721); assay: c-KIT kinase chemiluminescence assay (ADP-Glo); format: biochemical; conditions: ATP 50 μM
Chain of Recombinant human c-KIT kinase (P10721 26-976): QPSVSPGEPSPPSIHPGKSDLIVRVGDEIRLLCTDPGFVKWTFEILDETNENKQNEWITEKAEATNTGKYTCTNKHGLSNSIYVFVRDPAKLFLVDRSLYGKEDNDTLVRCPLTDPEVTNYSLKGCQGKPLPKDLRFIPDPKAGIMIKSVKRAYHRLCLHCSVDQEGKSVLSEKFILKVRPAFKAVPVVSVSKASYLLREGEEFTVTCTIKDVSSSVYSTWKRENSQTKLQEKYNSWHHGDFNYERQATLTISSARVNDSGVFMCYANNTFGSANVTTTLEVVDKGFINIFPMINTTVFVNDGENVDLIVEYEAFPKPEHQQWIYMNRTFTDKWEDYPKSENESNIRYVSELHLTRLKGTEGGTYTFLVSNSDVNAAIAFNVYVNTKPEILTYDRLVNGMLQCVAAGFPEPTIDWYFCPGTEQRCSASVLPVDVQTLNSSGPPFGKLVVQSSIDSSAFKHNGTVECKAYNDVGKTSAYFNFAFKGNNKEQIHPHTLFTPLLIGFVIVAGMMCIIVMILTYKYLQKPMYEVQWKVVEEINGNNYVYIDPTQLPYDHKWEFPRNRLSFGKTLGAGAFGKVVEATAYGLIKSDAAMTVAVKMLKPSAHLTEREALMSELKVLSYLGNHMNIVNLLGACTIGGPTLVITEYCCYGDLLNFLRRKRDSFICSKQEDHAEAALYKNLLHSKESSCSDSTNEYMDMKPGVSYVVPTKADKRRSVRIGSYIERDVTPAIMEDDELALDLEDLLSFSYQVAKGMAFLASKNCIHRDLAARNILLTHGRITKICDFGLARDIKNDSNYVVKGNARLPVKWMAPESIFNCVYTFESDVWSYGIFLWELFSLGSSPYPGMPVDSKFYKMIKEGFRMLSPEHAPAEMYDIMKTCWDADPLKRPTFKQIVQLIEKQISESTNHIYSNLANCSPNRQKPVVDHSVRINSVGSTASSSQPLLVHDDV
Method in brief: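 Recombinant human c-KIT preincubated 30 min at RT in 40 mM Tris pH 7.5, 20 mM MgCl2, 0.1 mg/mL BSA, 50 μM DTT, then reacted 2 h at RT with ATP and polyEY substrate. ADP-Glo luminescence readout; activity normalized to high/low controls, IC50 and Hill coefficient from inhibitor-versus-normalized-response fit.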

Row | Structure (SMILES) | IC50 [1] | EC50 (M-07e cells)
1 | Cc1nnc(N2CC(c3nc(-c4cnc(C)c(NC(=O)c5cnn6ccc(N7CC8(C7)CC(O)(C(F)F)C8)cc56)c4)no3)C2)o1 [Example 281-70] | > 1 µM | > 1 µM
2 | Cc1nnc(N2CC(c3nc(-c4cnc(C)c(NC(=O)c5cnn6ccc(N7CC8(COC8)C7)cc56)c4)no3)C2)o1 [Example 281-71] | > 1 µM | > 1 µM
3 | CC(=O)N1CCC(c2nc(-c3cnc(C)c(NC(=O)c4cnn5ccc(N6CC7(C6)CC(O)(C(F)F)C7)cc45)c3)no2)CC1 [Example 281-72] | > 1 µM | > 1 µM
4 | CC(=O)N1CC2(CC(c3nc(-c4cnc(C)c(NC(=O)c5cnn6ccc(N7CC8(C7)CC(O)(C(F)F)C8)cc56)c4)no3)C2)C1 [Example 281-73] | > 1 µM | > 1 µM
5 | CC(=O)N1CCC(c2nc(-c3cnc(C)c(NC(=O)c4cnn5ccc(N6CC7(COC7)C6)cc45)c3)no2)C1 (centres unmarked) [Example 281-74] | > 1 µM | > 1 µM
6 | CC(=O)N1CCC(c2nc(-c3cnc(C)c(NC(=O)c4cnn5ccc(N6CC7(COC7)C6)cc45)c3)no2)CC1 [Example 281-75] | > 1 µM | > 1 µM
7 | CC(=O)N1CC2(CC(c3nc(-c4cnc(C)c(NC(=O)c5cnn6ccc(N7CC8(COC8)C7)cc56)c4)no3)C2)C1 [Example 281-76] | > 1 µM | > 1 µM
8 | Cc1ncc(-c2noc(C3CN(C(=O)[C@H]4C[C@@H]4F)C3)n2)cc1NC(=O)c1cnn2ccc(N3CC4(C3)CC(O)(C(F)F)C4)cc12 [Example 281-79] | > 1 µM | > 1 µM
9 | Cc1ncc(-c2noc(C3CN(C(=O)[C@H]4C[C@@H]4F)C3)n2)cc1NC(=O)c1cnn2ccc(N3CC4(COC4)C3)cc12 [Example 281-80] | > 1 µM | > 1 µM
10 | Cc1ncc(-c2noc(C3CN(C(=O)C4(F)CC4)C3)n2)cc1NC(=O)c1cnn2ccc(N3CC4(C3)CC(O)(C(F)F)C4)cc12 [Example 281-84] | > 1 µM | 0.1 to 1 µM
11 | Cc1ncc(-c2noc(C3CN(C(=O)C4(F)CC4)C3)n2)cc1NC(=O)c1cnn2ccc(N3CC4(COC4)C3)cc12 [Example 281-85] | > 1 µM | 0.1 to 1 µM
12 | Cc1ncc(-c2noc(C3CN(C(=O)C4CC4)C3)n2)cc1NC(=O)c1cnn2ccc(N3CC4(C3)CC(O)(C(F)F)C4)cc12 [Example 281-86] | > 1 µM | > 1 µM
13 | Cc1ncc(-c2noc(C3CN(C(=O)C4CC4)C3)n2)cc1NC(=O)c1cnn2ccc(N3CC4(COC4)C3)cc12 [Example 281-87] | > 1 µM | > 1 µM
14 | Cc1ncc(-c2noc(C3CN(C(=O)OC(C)(C)C)C3)n2)cc1NC(=O)c1cnn2ccc(N3CC4(C3)CC(O)(C(F)F)C4)cc12 [Example 281-90] | > 1 µM | 0.1 to 1 µM
15 | Cc1ncc(-c2noc(C3CN(C(=O)[C@H]4CC4(F)F)C3)n2)cc1NC(=O)c1cnn2ccc(N3CC4(C3)CC(O)(C(F)F)C4)cc12 [Example 281-91] | > 1 µM | > 1 µM
16 | O=C(Nc1cc(-c2noc([C@H]3C[C@@H]3F)n2)ccc1C1CC1)c1cnn2ccc(N3CC4(COC4)C3)cc12 [Example 281-94] | > 1 µM | > 1 µM
17 | Cc1ncc(-c2noc(C3(F)CN(C(=O)OC(C)(C)C)C3)n2)cc1NC(=O)c1cnn2ccc(N3CC4(C3)CC(O)(C(F)F)C4)cc12 [Example 281-101] | > 1 µM | 0.1 to 1 µM

Continued, in another order:

Row | IC50 [1] | Structure (SMILES) | EC50 (M-07e cells)
18 | < 0.1 µM | Cc1ccc(-c2noc([C@H]3C[C@@H]3F)n2)c(F)c1NC(=O)c1cnn2ccc(N3CC4(COC4)C3)cc12 [Example 281-65] | < 0.1 µM
19 | 0.1 to 1 µM | Cc1ncc(-c2noc([C@H]3C[C@H](C(F)(F)F)C3)n2)cc1NC(=O)c1cnn2ccc(N3CC4(COC4)C3)cc12 [Example 281-66] | < 0.1 µM
20 | 0.1 to 1 µM | Cc1ncc(-c2noc(C3CC(F)(F)C3)n2)cc1NC(=O)c1cnn2ccc(N3CC4(COC4)C3)cc12 [Example 281-67] | < 0.1 µM
21 | < 0.1 µM | Cc1ncc(-c2noc([C@H]3C[C@H](C(F)(F)F)C3)n2)cc1NC(=O)c1cnn2ccc(N3CC4(C3)CC(O)(C(F)F)C4)cc12 [Example 281-68] | < 0.1 µM
22 | 0.1 to 1 µM | Cc1ncc(-c2noc(C3CC(F)(F)C3)n2)cc1NC(=O)c1cnn2ccc(N3CC4(C3)CC(O)(C(F)F)C4)cc12 [Example 281-69] | < 0.1 µM
23 | 0.1 to 1 µM | COC(=O)N1CC(c2nc(-c3cnc(C)c(NC(=O)c4cnn5ccc(N6CC7(COC7)C6)cc45)c3)no2)C1 [Example 281-77] | 0.1 to 1 µM
24 | < 0.1 µM | COC(=O)N1CC(c2nc(-c3cnc(C)c(NC(=O)c4cnn5ccc(N6CC7(C6)CC(O)(C(F)F)C7)cc45)c3)no2)C1 [Example 281-78] | < 0.1 µM
25 | 0.1 to 1 µM | Cc1ccc(-c2noc(N3CC(F)(F)C3)n2)cc1NC(=O)c1cnn2ccc(N3CC4(COC4)C3)cc12 [Example 281-81] | < 0.1 µM
26 | < 0.1 µM | Cc1ccc(-c2noc(N3CC(O)(C(F)(F)F)C3)n2)cc1NC(=O)c1cnn2ccc(N3CC4(COC4)C3)cc12 [Example 281-82] | < 0.1 µM
27 | 0.1 to 1 µM | Cc1ccc(-c2noc(N3CCOCC3)n2)cc1NC(=O)c1cnn2ccc(N3CC4(COC4)C3)cc12 [Example 281-83] | < 0.1 µM
28 | 0.1 to 1 µM | Cc1ncc(-c2noc(C3CN(CC(F)(F)F)C3)n2)cc1NC(=O)c1cnn2ccc(N3CC4(C3)CC(O)(C(F)F)C4)cc12 [Example 281-88] | < 0.1 µM
29 | 0.1 to 1 µM | Cc1ncc(-c2noc([C@H]3CC3(F)F)n2)cc1NC(=O)c1cnn2ccc(N3CC4(C3)CC(O)(C(F)F)C4)cc12 [Example 281-89] | < 0.1 µM
30 | 0.1 to 1 µM | Cc1ccc(-c2noc(C3CCN(C(=O)[C@H]4C[C@@H]4F)C3)n2)cc1NC(=O)c1cnn2ccc(N3CC4(COC4)C3)cc12 (some centres unmarked) [Example 281-92] | 0.1 to 1 µM
31 | 0.1 to 1 µM | Cc1ccc(-c2noc(C3CCN(C(=O)[C@H]4C[C@@H]4F)CC3)n2)cc1NC(=O)c1cnn2ccc(N3CC4(COC4)C3)cc12 [Example 281-93] | 0.1 to 1 µM
32 | 0.1 to 1 µM | Cc1sc(-c2noc([C@H]3C[C@@H]3F)n2)cc1NC(=O)c1cnn2ccc(N3CC4(C3)CC(O)(C(F)F)C4)cc12 [Example 281-95] | < 0.1 µM
33 | 0.1 to 1 µM | Cc1ccc(-c2noc(C3CCN(C(=O)[C@H]4C[C@@H]4F)C3)n2)cc1NC(=O)c1cnn2ccc(N3CC4(C3)CC(O)(C(F)F)C4)cc12 (some centres unmarked) [Example 281-96] | 0.1 to 1 µM
34 | 0.1 to 1 µM | Cc1ccc(-c2noc(C3CCN(C(=O)[C@H]4C[C@@H]4F)CC3)n2)cc1NC(=O)c1cnn2ccc(N3CC4(C3)CC(O)(C(F)F)C4)cc12 [Example 281-97] | 0.1 to 1 µM
35 | < 0.1 µM | Cc1ccc(-c2noc(N3CC(F)(F)C3)n2)cc1NC(=O)c1cnn2ccc(N3CC4(C3)CC(O)(C(F)F)C4)cc12 [Example 281-98] | < 0.1 µM
36 | < 0.1 µM | Cc1ccc(-c2noc(N3CC(O)(C(F)(F)F)C3)n2)cc1NC(=O)c1cnn2ccc(N3CC4(C3)CC(O)(C(F)F)C4)cc12 [Example 281-99] | < 0.1 µM
37 | 0.1 to 1 µM | Cc1ccc(-c2noc(N3CCOCC3)n2)cc1NC(=O)c1cnn2ccc(N3CC4(C3)CC(O)(C(F)F)C4)cc12 [Example 281-100] | < 0.1 µM
